Values quoted from earlier work, collected in patent US20050129719A1, “Concentrated emulsion formulation for silatecan” (priority 2003, published 2005).

CC[C@@]1(O)C(=O)OCc2c1cc1n(c2=O)Cc2c-1nc1ccc(O)cc1c2[Si](C)(C)C(C)(C)C [Silatecan, 7-t-butyldimethylsilyl-10-hydroxycamptothecin]
water-solubility: extremely low water-solubility
